Source: ChEMBL document CHEMBL4673209, “Discovery of a novel potent GPR40 full agonist” (Bioorg Med Chem Lett, 2018)
The source made the active and inactive calls. No cut-off for these calls is given here.

What was measured:
[1] = target: Cytochrome P450 2C19 (Homo sapiens, UniProt P33261); test: Inhibition of CYP2C19 (unknown origin); type: ADME
[2] = target: T1, Cytochrome P450 1A2 (Homo sapiens, UniProt P05177); test: Inhibition of CYP1A2 (unknown origin); type: ADME
T1 sequence (P05177 whole entry): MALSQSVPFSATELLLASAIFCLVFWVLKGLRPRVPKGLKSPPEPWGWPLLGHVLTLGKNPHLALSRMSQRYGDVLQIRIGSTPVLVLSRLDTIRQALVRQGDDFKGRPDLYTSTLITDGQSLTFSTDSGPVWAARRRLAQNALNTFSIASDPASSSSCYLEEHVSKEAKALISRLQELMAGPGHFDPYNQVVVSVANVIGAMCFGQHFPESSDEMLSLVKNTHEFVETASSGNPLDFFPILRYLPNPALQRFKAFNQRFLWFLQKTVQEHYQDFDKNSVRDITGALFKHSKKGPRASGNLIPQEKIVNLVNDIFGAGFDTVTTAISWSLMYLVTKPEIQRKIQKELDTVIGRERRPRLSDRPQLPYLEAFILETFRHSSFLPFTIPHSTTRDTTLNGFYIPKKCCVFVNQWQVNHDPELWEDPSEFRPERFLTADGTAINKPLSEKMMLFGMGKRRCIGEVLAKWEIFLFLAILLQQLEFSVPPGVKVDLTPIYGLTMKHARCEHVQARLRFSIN

[3] = Clearance in dog; type: ADME, Canis lupus familiaris; details: in vivo
[4] = Apparent permeability across basolateral to apical side in human Caco2 cells; type: ADME, cell-based; details: Caco-2
[5] = tested on: Rattus norvegicus; test: Anti-glycemic activity in fasted Sprague-Dawley ZDF rat assessed as reduction in post-prandial hyperglycemia by measuring AUC(0 to 2 hrs) for blood glucose at 3 mg/kg administered for 1 day and measured on day 1 by OGTT; type: functional
[6] = target: Free fatty acid receptor 1 (Rattus norvegicus) (UniProt Q8K3T4); test: Agonist activity at rat GPR40 receptor expressed in CHOK1 cells assessed as induction of IP1 accumulation at 10 uM relative to TAK875; type: functional, cell-based; details: CHO-K1, filed as agonist
Free fatty acid receptor 1 (Rattus norvegicus), sequence (Q8K3T4 whole entry): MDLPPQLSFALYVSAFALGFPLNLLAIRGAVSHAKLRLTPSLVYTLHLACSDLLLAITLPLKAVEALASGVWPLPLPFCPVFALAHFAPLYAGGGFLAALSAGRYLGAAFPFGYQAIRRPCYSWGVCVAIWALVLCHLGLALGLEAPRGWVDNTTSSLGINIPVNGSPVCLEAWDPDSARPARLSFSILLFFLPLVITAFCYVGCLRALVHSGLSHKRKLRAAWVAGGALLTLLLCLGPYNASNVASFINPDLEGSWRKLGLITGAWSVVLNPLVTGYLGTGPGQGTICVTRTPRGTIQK

[7] = Half life in iv dosed dog; type: ADME, organism-based, Canis lupus familiaris; details: in vivo
[8] = target: T2, Cytochrome P450 3A4 (Homo sapiens, UniProt P08684); test: Inhibition of CYP3A4 (unknown origin) using midazolam as substrate; type: ADME
T2 sequence (P08684 whole entry): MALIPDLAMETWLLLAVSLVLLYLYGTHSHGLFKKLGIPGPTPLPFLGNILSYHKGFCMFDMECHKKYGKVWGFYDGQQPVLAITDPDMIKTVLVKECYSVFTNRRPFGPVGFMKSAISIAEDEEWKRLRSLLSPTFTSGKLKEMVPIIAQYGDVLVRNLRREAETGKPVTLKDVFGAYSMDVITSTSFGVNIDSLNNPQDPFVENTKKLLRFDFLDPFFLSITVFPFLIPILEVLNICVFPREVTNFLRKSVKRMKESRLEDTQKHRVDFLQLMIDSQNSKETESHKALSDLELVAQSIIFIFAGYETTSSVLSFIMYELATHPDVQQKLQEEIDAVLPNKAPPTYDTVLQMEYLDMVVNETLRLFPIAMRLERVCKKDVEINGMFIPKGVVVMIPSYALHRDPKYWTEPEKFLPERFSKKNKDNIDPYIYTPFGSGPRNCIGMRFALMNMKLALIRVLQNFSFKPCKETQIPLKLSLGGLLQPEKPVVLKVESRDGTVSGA

[9] = Volume of distribution at steady state in rat; type: ADME; details: in vivo, read-out: Vdss
[10] = Intrinsic clearance in human assessed as half-life at 1 uM; type: ADME
[11] = Intrinsic clearance in rat assessed as half-life at 1 uM; type: ADME
[12] = Apparent permeability from apical to basolateral side in dog MDCK-MDR1 cells; type: ADME, cell-based, Canis lupus familiaris
[13] = Half life in iv dosed cynomolgus monkey; type: ADME, organism-based, Macaca fascicularis; details: in vivo
[14] = Intrinsic clearance in dog assessed as half-life at 1 uM; type: ADME, Canis lupus familiaris
[15] = species: Mus musculus; test: Anti-glycemic activity in GPR40 knockout mouse assessed as reduction in blood glucose excursion measured for 120 mins by IPGTT; type: functional, organism-based
[16] = Cmax in cynomolgus monkey; type: ADME, Macaca fascicularis; details: in vivo
[17] = Half life in iv dosed rat; type: ADME, organism-based; details: in vivo
[18] = target: Free fatty acid receptor 1 (Homo sapiens, UniProt O14842); test: Agonist activity at human GPR40 transfected in HEK293 cells assessed as increase in intracellular calcium level incubated for 1 hr by Fluo-8 dye based fluorescence analysis; type: functional, cell-based; details: hek293
Free fatty acid receptor 1 (Homo sapiens, UniProt O14842), sequence (O14842 whole entry): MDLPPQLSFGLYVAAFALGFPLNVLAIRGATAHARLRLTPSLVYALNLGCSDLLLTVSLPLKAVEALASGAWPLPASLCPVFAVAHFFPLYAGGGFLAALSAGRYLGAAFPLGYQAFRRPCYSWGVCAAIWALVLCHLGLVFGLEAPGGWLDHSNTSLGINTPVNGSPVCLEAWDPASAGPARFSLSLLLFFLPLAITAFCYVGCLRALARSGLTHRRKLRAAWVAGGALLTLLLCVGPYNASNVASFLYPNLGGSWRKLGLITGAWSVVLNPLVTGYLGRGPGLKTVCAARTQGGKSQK

[19] = target: Free fatty acid receptor 1 (Rattus norvegicus, UniProt Q8K3T4); test: Agonist activity at GPR40 receptor in rat INS1(832/13) cells assessed as induction of IP1 accumulation; type: functional, cell-based, INS-1 832/13
Free fatty acid receptor 1 (Rattus norvegicus, UniProt Q8K3T4), sequence (Q8K3T4 whole entry): as the sequence (Q8K3T4 whole entry) above

[20] = tested on: Rattus norvegicus; test: Anti-glycemic activity in fasted Sprague-Dawley ZDF rat assessed as increase in insulin secretion by measuring insulin level in plasma at 3 mg/kg administered 30 mins prior to glucose challenge measured after 140 mins by OGTT; type: functional; details: time 170 min, 2.833 h
[21] = target: T3, Free fatty acid receptor 2 (Homo sapiens) (UniProt O15552); test: Agonist activity at GPR43 (unknown origin)
T3 sequence (whole entry): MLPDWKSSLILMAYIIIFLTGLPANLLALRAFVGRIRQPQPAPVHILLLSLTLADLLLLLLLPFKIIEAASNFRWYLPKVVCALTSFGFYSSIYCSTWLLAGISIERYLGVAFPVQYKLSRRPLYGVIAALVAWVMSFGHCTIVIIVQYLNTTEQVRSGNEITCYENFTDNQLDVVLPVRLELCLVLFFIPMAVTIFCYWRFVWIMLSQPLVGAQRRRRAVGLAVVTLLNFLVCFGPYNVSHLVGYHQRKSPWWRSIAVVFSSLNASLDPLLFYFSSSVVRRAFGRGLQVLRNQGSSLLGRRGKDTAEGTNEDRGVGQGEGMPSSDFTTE

[22] = target: T4, Cytochrome P450 2C8 (Homo sapiens, UniProt P10632); test: Inhibition of recombinant CYP2C8 (unknown origin); type: ADME
T4 sequence (P10632 whole entry): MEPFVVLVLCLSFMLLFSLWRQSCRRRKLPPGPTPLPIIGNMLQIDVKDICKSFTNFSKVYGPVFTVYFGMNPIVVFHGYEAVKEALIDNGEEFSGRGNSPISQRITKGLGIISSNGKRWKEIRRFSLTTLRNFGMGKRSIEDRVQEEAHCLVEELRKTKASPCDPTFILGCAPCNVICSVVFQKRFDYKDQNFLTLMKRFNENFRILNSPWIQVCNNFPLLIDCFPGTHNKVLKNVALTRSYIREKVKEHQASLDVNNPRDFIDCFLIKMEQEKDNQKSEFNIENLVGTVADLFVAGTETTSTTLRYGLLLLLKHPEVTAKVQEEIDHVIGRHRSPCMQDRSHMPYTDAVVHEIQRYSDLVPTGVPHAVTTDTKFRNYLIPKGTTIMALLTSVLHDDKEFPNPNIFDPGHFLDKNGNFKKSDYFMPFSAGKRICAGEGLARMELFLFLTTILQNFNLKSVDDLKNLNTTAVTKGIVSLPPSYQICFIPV

[23] = Protein binding in human plasma; type: ADME, cell-free; details: read-out: PPB (converted)
[24] = Apparent permeability across apical to basolateral side in human Caco2 cells; type: ADME, cell-based; details: Caco-2
[25] = Cmax in dog; type: ADME, Canis lupus familiaris; details: in vivo
[26] = Drug metabolism in rat assessed as (3S)-3-cyclopropyl-3-(3-((5-(5-fluoro-2-hydroxypyridin-4-yl)-6-isobutylpyrazin-2-yl)methoxy)phenyl)propanoic acid metabolite formation by MetID studies; type: ADME
[27] = Oral bioavailability in dog; type: ADME, organism-based, Canis lupus familiaris; details: in vivo
[28] = Oral bioavailability in rat; type: ADME, organism-based; details: in vivo
[29] = target: T2, Cytochrome P450 3A4; test: Inhibition of CYP3A4 (unknown origin) using testosterone as substrate; type: ADME
[30] = target: Free fatty acid receptor 1 (Mus musculus, UniProt Q76JU9); test: Agonist activity at mouse GPR40 assessed as increase in intracellular calcium level; type: functional, cell-based
Free fatty acid receptor 1 (Mus musculus, UniProt Q76JU9), sequence (Q76JU9 whole entry): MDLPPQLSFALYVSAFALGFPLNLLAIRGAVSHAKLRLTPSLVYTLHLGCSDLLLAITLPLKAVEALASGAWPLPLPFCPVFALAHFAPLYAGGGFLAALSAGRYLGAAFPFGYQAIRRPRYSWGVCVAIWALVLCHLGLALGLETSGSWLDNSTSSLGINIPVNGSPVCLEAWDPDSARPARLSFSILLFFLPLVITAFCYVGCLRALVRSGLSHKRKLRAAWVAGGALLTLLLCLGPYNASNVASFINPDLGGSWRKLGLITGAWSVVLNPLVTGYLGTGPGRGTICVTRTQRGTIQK

[31] = Protein binding in dog plasma; type: ADME, cell-free, Canis lupus familiaris; details: read-out: PPB (converted)
[32] = Cmax in rat; type: ADME; details: in vivo
[33] = target: Free fatty acid receptor 1 (Rattus norvegicus) (UniProt Q8K3T4); test: Agonist activity at GPR40 receptor in rat INS1(832/13) cells assessed as induction of IP1 accumulation at 10 uM relative to AM1638; type: functional, cell-based; details: INS-1 832/13, filed as agonist

Cytochrome P450 2C19, sequence (P33261 whole entry): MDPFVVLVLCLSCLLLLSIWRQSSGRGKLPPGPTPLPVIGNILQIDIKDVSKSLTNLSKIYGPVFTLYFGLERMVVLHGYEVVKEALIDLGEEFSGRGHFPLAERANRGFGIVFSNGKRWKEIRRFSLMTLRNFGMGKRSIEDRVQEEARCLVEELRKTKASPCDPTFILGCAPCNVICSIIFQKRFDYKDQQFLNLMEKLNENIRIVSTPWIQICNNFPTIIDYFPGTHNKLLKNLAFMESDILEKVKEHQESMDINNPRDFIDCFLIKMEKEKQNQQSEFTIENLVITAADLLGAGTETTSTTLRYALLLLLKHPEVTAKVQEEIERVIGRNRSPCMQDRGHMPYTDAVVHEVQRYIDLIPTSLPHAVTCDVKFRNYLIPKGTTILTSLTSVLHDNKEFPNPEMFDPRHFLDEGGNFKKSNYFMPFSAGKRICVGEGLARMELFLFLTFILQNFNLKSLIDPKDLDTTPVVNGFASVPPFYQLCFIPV

Question: What does the source list for `COc1cc(-c2ncc(COc3cccc([C@@H](CC(=O)O)C4CC4)c3)nc2CC(C)C)c(F)cn1`?
Answer: IC50 [1]: > 10 µM; IC50 [2]: > 10 µM; clearance [3]: 0.502 L/h/kg; Papp B→A [4]: 400 nm/s; Activity [5]: 15896 ng/mL.hr; Activity [6]: 167%; half-life [7]: 4.82 h; IC50 [8]: 8 µM; Vd [9]: 0.384 L/kg; half-life at 1 µM [10]: 1.72 h; half-life at 1 µM [11]: 0.8 h; Papp A→B [12]: 500 nm/s; half-life [13]: 11.2 h; half-life at 1 µM [14]: 1.38 h; Activity [15]: inactive; Cmax [16]: 8.57 µg/mL; half-life [17]: 2.71 h; EC50 [18]: 0.002 µM; EC50 [19]: 0.862 µM; Activity [20]: 5275 ng/mL; Activity [21]: inactive; IC50 [22]: 9.8 µM; fraction unbound [23]: 0.0012; Papp A→B [24]: 400 nm/s; Cmax [25]: 1.55 µg/mL; Drug metabolism [26]: Metabolite_Detected; bioavailability [27]: 33.6%; bioavailability [28]: 123%; IC50 [29]: > 10 µM; EC50 [30]: 0.038 µM; fraction unbound [31]: 0.0045; Cmax [32]: 9.72 µg/mL; Activity [33]: 104%
